# Data reported in PubChem BioAssay (NCI).
# Several values for one entry are separate records, joined by “and”; a condition that tells them apart may be missing. Identical values can stand only once.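 Interpolation was linear, between the two tested concentrations surrounding the appropriate level; five concentrations were tested over 48 hours in 96-well plates. Abbreviation: GI50, concentration required for 50% inhibition of growth. TGI: concentration producing complete growth inhibition.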
# Key:
# Test in all cases: NCI anticancer screen, dose series, 48 h
# [1] = system: DMS 273 small cell lung
# [2] = system: HCT-116 colon
# [3] = system: COLO 205 colon
# [4] = system: ACHN renal
# [5] = system: HOP-18 NSCLC
# [6] = system: A549 NSCLC
# [7] = system: LXFL 529 NSCLC
# [8] = system: EKVX NSCLC
# [9] = system: MDA-MB-231 breast
# [10] = system: MDA-MB-435
Structure (SMILES),TGI [1],TGI [2],TGI [3] [µM],TGI [4],TGI [5] [µM],TGI [6] [µM],TGI [7],TGI [8] [µM],TGI [9] [µM],TGI [10] [µM],GI50 [2] [µM],GI50 [3] [µM],GI50 [4] [µM],GI50 [7] [µM],GI50 [8] [µM],GI50 [1] [µM],GI50 [6] [µM],GI50 [5] [µM]
C#CCC(N)(CO)C(=O)O (stereo not drawn),> 100 µM,> 100 µM,> 100,> 100 µM,> 100,> 100,> 100 µM,> 100,–,–,–,–,–,–,–,–,–,–
C=CCC1[C@@H](C(C)(C)C(C(C)=O)C(=O)C(=O)OC)OC(C(C)(C)C)N1C(=O)OC (stereo partly drawn),–,> 100 µM,> 100,> 100 µM,> 100,> 100,–,> 100,–,–,–,–,–,–,–,–,–,–
COC1OC(C)C(OCc2ccccc2)C(OS(=O)(=O)c2ccc(C)cc2)C1OS(=O)(=O)c1ccc(C)cc1 (stereo not drawn),> 100 µM,> 100 µM,> 100,> 100 µM,> 100,> 100,> 100 µM,> 100,–,–,–,–,–,–,–,–,–,–
CCOC(=O)C(=O)Nc1ccccc1C(F)(F)F,> 100 µM,> 100 µM,> 100,> 100 µM,> 100,> 100,> 100 µM,> 100,–,–,–,–,–,–,–,–,–,–
CNC(SC)=C1C(=O)OC(C)(C)OC1=O,> 100 µM,> 100 µM,> 100,> 100 µM,> 100,> 100,> 100 µM,> 100,–,–,–,–,–,–,–,–,–,–
CSc1c(C)c(C)nn1-c1ccccc1,> 100 µM,–,> 100,> 100 µM,–,> 100,> 100 µM,> 100,–,–,–,–,–,–,–,–,–,–
Cc1nnc(N/N=C(/C(=O)C(C#N)c2ccccc2)C(C#N)c2ccccc2)n1N (stereo not drawn),34.4 µM,> 55.7 µM,14,65.5 µM,28.6,49.3,10.6 µM,> 100,–,–,–,–,–,–,–,–,–,–
COc1c(Br)cc(Br)c(OC)c1-c1[nH]c(Br)c(Br)c1Br,25.1 µM,12.3 µM,28,17.1 µM,9.05,19.2,–,21.1,–,–,–,–,–,–,–,–,–,–
CC(=O)NNc1nc(C)c(C(=O)NNC(=O)C(=O)Nc2nc3ccc([N+](=O)[O-])cc3s2)s1,> 100 µM,> 100 µM,> 100,> 100 µM,–,> 100,> 100 µM,> 100,> 100,> 100,–,–,–,–,–,–,–,–
NC(N)=NS(=O)(=O)c1ccc(NC(=O)c2cccc3c(Nc4ccc(S(N)(=O)=O)cc4)c4ccccc4nc23)cc1,> 100 µM,–,> 100,> 100 µM,> 100,> 100,> 100 µM,> 100,–,–,–,–,–,–,–,–,–,–
Cl[Si]1(Cl)Oc2ccccc2O[Si](Cl)(Cl)Oc2ccccc2O1,31.3 µM,> 100 µM,59.7,> 100 µM,–,> 100,–,> 100,–,–,–,–,–,–,–,–,–,–
O=C/C(=C(/Cl)c1ccc(O)cc1)c1ccccc1,48 µM,37.2 µM,46.9,50.2 µM,> 31.6,> 84.6,59.9 µM,> 75.7,–,–,–,–,–,–,–,–,–,–
CCOC(=O)c1ccc(N[C@@H]2c3cc4c(cc3C(C3=CC(=O)C(=O)C(OC)=C3)[C@H]3C(=O)OCC32)OCO4)cc1 (stereo partly drawn),13.5 µM,18.7 µM,28.3,3.86 µM,–,5.67,29.4 µM,26.3,–,–,–,–,–,–,–,–,–,–
COC(=O)/C(C#N)=C1\CCC(C(=O)OC)N1C (stereo not drawn),> 100 µM,> 100 µM,> 100,–,–,> 100,–,> 100,–,–,–,–,–,–,–,–,–,–
Cc1ccc2nc3c(Cl)c(C)c(=O)cc-3sc2c1,> 100 µM,> 100 µM,> 100,> 100 µM,–,> 100,> 100 µM,> 100,–,–,39.6,> 100,39.7,62.9,63.3,–,–,–
CC1(Cc2ccccc2)NC(=S)NC1=O (stereo not drawn),> 100 µM,–,> 100,> 100 µM,8.35,> 100,> 100 µM,> 100,–,–,–,–,–,–,–,–,–,–
COc1cc2cnc3c4ccccc4ccc3c2cc1OC,–,–,> 100,> 100 µM,–,> 100,> 100 µM,> 100,–,–,–,–,–,–,–,–,–,–
CC1(C)OC2COC3(CNO)OC(C)(C)OC3C2O1 (stereo not drawn),> 100 µM,> 100 µM,> 100,> 100 µM,> 100,> 100,–,> 100,–,–,–,–,–,–,–,–,–,–
CC(C)c1ccccc1NC(=O)/C(Cl)=C1/Sc2ccccc2NC1=O,–,> 100 µM,74.6,> 100 µM,–,> 100,> 100 µM,> 100,–,–,–,–,–,–,–,–,–,–
COc1ccc(Nc2nc3ccccc3nc2-c2cccs2)cc1,> 100 µM,> 100 µM,> 100,> 100 µM,> 100,> 100,> 100 µM,> 100,–,–,–,–,–,–,–,–,–,–
CC1=C(C(=O)Nc2ccccc2C)C(/C=C/c2ccccc2)C(C(=O)Nc2ccccc2C)=C(C)N1,> 100 µM,> 100 µM,> 100,> 100 µM,> 100,> 100,> 100 µM,> 100,–,–,–,–,–,–,–,–,–,–
C[n+]1c2ccccc2cc2c(CNC(CCCN=C(N)N)C(=O)O)cccc21 (stereo not drawn),8.77 µM and 1.53 µM,1.26 µM and 1.07 µM,0.686,1.83 µM and 2.05 µM,15.5,14.6,2.12 µM and 2.14 µM,10.2,–,–,0.343,–,0.486,0.659,2.68,0.441,4.11,–
CC(=O)[CH-]C(C)=O.[CH2-]C.[CH2-]C.[Tl+3],> 100 µM,> 100 µM,> 100,> 100 µM,> 100,> 100,> 100 µM,> 100,–,–,> 100,> 100,> 100,> 100,> 100,> 100,> 100,> 100
O=C1C2=C(c3ccccc31)C(c1ccccc1Cl)N1C(=O)CCSC1=N2 (stereo not drawn),> 100 µM,> 100 µM,> 100,> 100 µM,–,> 100,–,> 100,–,–,–,–,–,–,–,–,–,–
CC(=O)OC1COC(n2c(=S)n(-c3ccccc3)c(=O)c3cc(Br)ccc32)C(OC(C)=O)C1OC(C)=O (stereo not drawn),> 100 µM,> 100 µM,> 100,> 100 µM,> 100,> 100,> 100 µM,> 100,–,–,–,–,–,–,–,–,–,–
